From US7998924B2, “Compounds that bind to p185 and methods of using the same” (The Trustees of The University of Pennsylvania, priority 2001, dated 2011)
Entries after “also recorded” stand apart in the source; their conditions may differ. Like-named read-outs stand apart in the source and are kept apart here. Positions of bridges follow the written chain, without caps; N, C: chain ends. Residues, ends and D or L forms follow the SMILES beside them. No end group written: not given here.

How the values were obtained:
[1] = Peptide solubility in PBS buffer at 1 mg/mL; assay type: physicochemical; conditions: pH 7.4, 1 mg/mL
Description: These peptides could be readily dissolved in the PBS buffer, pH 7.4, at 1 mg/mL concentration without adjustment of pH.

HER2 receptor = target: T1, HER2 receptor (Homo sapiens, UniProt P04626); assay: Biacore (surface plasmon resonance) binding of peptides to immobilized HER2; conditions: for kon: read-out: binding to HER2 kon
T1 construct: Recombinant purified HER2 receptor composed of the ectodomain of HER2 fused to the Fc of human IgG; purchased Xcyte Therapeutics, Seattle, Wash; (provided by Dr. Che Law; a gift, not a catalogue product)
Description: Binding of AHNP has been studies by means of surface plasmon resonance (Biacore) technology. In Biacore experiments, one of the interacting molecules (termed the ligand) is immobilized on the sensor surface, and the other interactant (termed the analyte) is continuously flown over that surface in a micro-flow cell. The interaction between the ligand and the analyte are monitored using a light source that is reflected at the immobilized chip. Binding of the analyte to the immobilized ligand changes the resonance angle of the reflected light due to changes in the refractive index of the surface. The response is plotted in real time in the form of sensorgram curves. The advantage with this approach is its sensitivity, ease of use, and ability to perform experiments with few microgram quantities of proteins and peptides. In addition, the kinetic binding studies reveal association and disassociation rates of the analyte which may be more relevant for understanding the pharmacokinetics of drug-receptor interactions.
Binding experiments were performed with the surface plasmon resonance based biosensor instrument Biacore 3000 (Biacore AB, Uppsala, Sweden) at 25° C. Recombinant purified HER2 receptor composed of the ectodomain of HER2 fused to the Fc of human IgG was provided by Dr. Che Law, Xcyte Therapeutics, Seattle, Wash. Immobilization of HER2 in the sensor surface was performed following the standard amine coupling procedure according to manufacturer's instructions. Briefly, 35 pit of a solution containing 0.2M N-ethyl-N-(dimethylaminopropyl) carbodiimide (EDC) and 0.05 M N-hydroxysuccinimide (NHS) were injected at a flow rate of 5 μL/min to activate carboxyl groups on the sensor chip surface. HER2 (40 ng/mL in 10 mM NaOAc buffer, pH 5.0) was flowed over the chip surface at a flow rate of 20 μL/min until the desired level bound protein was reached. Unreacted protein was washed out and unreacted activated groups were blocked by the injection of 35 μL of 1 M ethanolamine at 5 μL/min. […] A reference surface was generated simultaneously under the same conditions but without HER2 injection and used as a blank to correct for instrument and buffer artifacts. Peptides were injected at variable concentrations at 20 μL/min flow rate and binding to the HER2 receptor immobilized on the chip was monitored in real time. Each sensorgram consists of an association phase (first 240 s), reflecting binding of the injected peptide to the receptor, followed by a dissociation phase (300 s), during which the running buffer is passed over the chip and the bound peptide is being washed off the receptor surface.

T6-17 cells = conditions: for % inhibition of T6-17 cell proliferation in MTT assays: 1 μg/mL of peptides for 48 h
Description: (See reference 46 below.) HER2-expressing transformed tumor cells (T6-17) were used for this purpose. […] Each value represents an average of at least four samples.
The MTT assay has been used for measuring cell growth as previously described in ref 446. Briefly, T6-17 cells were seeded in 96-well plates overnight in DMEM containing 10% FBS (1000 per well). T6-17 is derived from NIH3T3 by overexpressing the human HER2 receptor. Cells were cultured in 100 μL of fresh medium containing 1 μg/mL of peptides for 48 h. […] A total of 25 μL of MTT solution (5 mg/mL in PBS) was added to each well, and after 2 h of incubation at 37° C., 100 μA of the extraction buffer (20% w/v of SDS, 50% N,N-dimethyl formamide, pH 4.7) were added. After an overnight incubation at 37° C., the optical density at 600 rim was measured using an ELISA reader.

[2] = tested on: MCF-7 parental strain (MCF/Par) p185-expressing cells; assay: Combination treatment with tamoxifen, growth inhibition, MCF-7 parental; assay type: cell-based; conditions: peptide 1 μg/ml plus tamoxifen
[3] = tested on: MCF-7/H2 p185-overexpressing cells; assay: Combination treatment with tamoxifen, growth inhibition, MCF-7/H2; assay type: cell-based; conditions: peptide 1 μg/ml plus tamoxifen
[4] = Biacore, immobilized HER2, 25° C., read-out: binding to HER2 KD
[5] = Biacore, immobilized HER2, 25° C., read-out: binding to HER2 koff
[6] = Biacore, immobilized HER2, 25° C.

T1 sequence (P04626 23-652 limits assumed): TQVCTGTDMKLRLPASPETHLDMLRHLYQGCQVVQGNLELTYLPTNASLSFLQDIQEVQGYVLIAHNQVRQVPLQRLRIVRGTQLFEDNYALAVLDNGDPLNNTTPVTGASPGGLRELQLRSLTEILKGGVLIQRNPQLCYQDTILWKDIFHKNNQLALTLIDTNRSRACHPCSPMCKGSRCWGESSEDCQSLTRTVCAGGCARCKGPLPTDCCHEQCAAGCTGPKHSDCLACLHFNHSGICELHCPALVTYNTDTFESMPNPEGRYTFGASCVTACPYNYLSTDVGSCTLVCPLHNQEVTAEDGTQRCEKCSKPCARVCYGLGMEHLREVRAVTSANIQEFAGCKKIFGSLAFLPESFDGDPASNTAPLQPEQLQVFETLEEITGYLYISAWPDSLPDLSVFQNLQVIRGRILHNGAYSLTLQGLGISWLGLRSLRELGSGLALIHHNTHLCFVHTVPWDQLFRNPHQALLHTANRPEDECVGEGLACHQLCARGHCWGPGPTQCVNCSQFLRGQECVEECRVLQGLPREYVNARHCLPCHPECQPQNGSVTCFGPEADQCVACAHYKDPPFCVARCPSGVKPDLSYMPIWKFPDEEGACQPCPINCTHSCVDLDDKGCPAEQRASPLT

| Molecule | solubility [1] [µg/mL] | solubility (in words) [1] | Kd (HER2 receptor; [4]) [nM] | koff (HER2 receptor; [5]) [s⁻¹] | kon (HER2 receptor; [6]) [M⁻¹ s⁻¹] | further results |
| --- | --- | --- | --- | --- | --- | --- |
| CSCC[C@H](NC(=O)[C@H](Cc1ccc(O)cc1)NC(=O)[C@@H]1CSSC[C@H](NC(=O)[C@@H](N)Cc2ccccc2)C(=O)N[C@@H](CC(=O)O)C(=O)NCC(=O)N[C@@H](Cc2ccccc2)C(=O)N[C@@H](Cc2ccc(O)cc2)C(=O)N[C@@H](C)C(=O)N1)C(=O)N[C@@H](CC(=O)O)C(=O)N[C@H](C(=O)O)C(C)C [Peptide 2] | < 1000 | no improvement in solubility | 650 |  |  | fold increase in binding affinity for HER2 relative to the comparator peptide (HER2 receptor; 2 vs linear 9, AHNP vs 2, 3 vs AHNP): more than 5 fold; koff (HER2 receptor; read-out: binding to HER2 koff): 0.000643 s⁻¹; kon (HER2 receptor): 990 M⁻¹ s⁻¹; % inhibition of T6-17 cell proliferation in MTT assays (T6-17 cells): 22.3% |
| CSCC[C@H](NC(=O)[C@H](Cc1ccc(O)cc1)NC(=O)[C@@H]1CSSC[C@H](NC(=O)[C@@H](N)Cc2ccc(O)cc2)C(=O)N[C@@H](CC(=O)O)C(=O)NCC(=O)N[C@@H](Cc2ccccc2)C(=O)N[C@@H](Cc2ccc(O)cc2)C(=O)N[C@@H](C)C(=O)N1)C(=O)N[C@@H](CC(=O)O)C(=O)N[C@H](C(N)=O)C(C)C [Peptide 3] (H-YCDGFYACYMDV-NH2; disulfide 2-8; N-terminus assumed) | < 1000 |  |  | 0.000294 | 1960 | koff (HER2 receptor; Biacore, immobilized HER2, read-out: koff): 0.000294 s⁻¹; Kd (HER2 receptor; Biacore, read-out: receptor-binding affinity KD): 150 nM; growth inhibition in combination with tamoxifen (in words) [2]: enhanced growth inhibition; growth inhibition in combination with tamoxifen (in words) [3]: enhanced growth inhibition; biological activity in the MTT assay relative to comparator (in words) (T6-17 cells; T6-17 cells): almost twice the activity of AHNP |
| CSCC[C@H](NC(=O)[C@@H](Cc1ccc(O)cc1)NC(=O)[C@@H]1CSSC[C@H](NC(=O)[C@H](N)Cc2ccccc2)C(=O)N[C@@H](CC(=O)O)C(=O)NCC(=O)N[C@@H](Cc2ccccc2)C(=O)N[C@@H](Cc2ccc(O)cc2)C(=O)N[C@@H](C)C(=O)N1)C(=O)N[C@@H](CC(=O)O)C(=O)N[C@H](C(N)=O)C(C)C [Peptide 4] | > 1000 | much higher solubility | 350 | 0.000603 | 1720 |  |
| CSCC[C@H](NC(=O)[C@H](Cc1ccc(O)cc1)NC(=O)[C@@H]1CSSC[C@H](NC(=O)[C@@H](N)Cc2ccccc2)C(=O)N[C@@H](CC(=O)O)C(=O)NCC(=O)N[C@@H](Cc2ccccc2)C(=O)N[C@@H](Cc2ccc(O)cc2)C(=O)N[C@@H](C)C(=O)N1)C(=O)N[C@@H](CC(=O)O)C(=O)N[C@H](C(=O)N[C@@H](CCCCN)C(N)=O)C(C)C [Peptide 5] (H-FCDGFYACYMDVK-NH2; disulfide 2-8) | < 1000 | no improvement in solubility | 830 |  |  | lower receptor affinity than 7 (HER2 receptor; relative to peptide 7): 14% |
| CC(C)[C@H](NC(=O)[C@H](CC(=O)O)NC(=O)[C@H](CCCCN)NC(=O)[C@H](Cc1ccc(O)cc1)NC(=O)[C@@H]1CSSC[C@H](NC(=O)[C@@H](N)Cc2ccccc2)C(=O)N[C@@H](CC(=O)O)C(=O)NCC(=O)N[C@@H](Cc2ccccc2)C(=O)N[C@@H](Cc2ccc(O)cc2)C(=O)N[C@@H](C)C(=O)N1)C(=O)O [Peptide 6] (H-FCDGFYACYKDV-OH; disulfide 2-8; N-terminus assumed) | > 1000 | much higher solubility | 5700 | 0.00125 | 219 | fold decrease in binding affinity for HER2 (HER2 receptor; Lys-containing analogues vs parent peptide): 8.8 fold; decrease in binding affinity (HER2 receptor; Met replaced with Lys): about 1 order of magnitude |
| CSCC[C@H](NC(=O)[C@H](Cc1ccc(O)cc1)NC(=O)[C@@H]1CSSC[C@H](NC(=O)[C@H](Cc2ccccc2)NC(=O)CN)C(=O)N[C@@H](CC(=O)O)C(=O)NCC(=O)N[C@@H](Cc2ccccc2)C(=O)N[C@@H](Cc2ccc(O)cc2)C(=O)N[C@@H](C)C(=O)N1)C(=O)N[C@@H](CC(=O)O)C(=O)N[C@H](C(=O)O)C(C)C [Peptide 7] (H-GFCDGFYACYMDV-OH; disulfide 3-9) | > 1000 | increased solubility; also recorded: good solubility | 730 | 0.000808 | 1110 |  |
| CSCC[C@H](NC(=O)[C@H](Cc1ccc(O)cc1)NC(=O)[C@@H]1CSSC[C@H](NC(=O)[C@@H](N)Cc2ccccc2)C(=O)NCC(=O)N[C@@H](CC(=O)O)C(=O)NCC(=O)N[C@@H](Cc2ccccc2)C(=O)N[C@@H](Cc2ccc(O)cc2)C(=O)N[C@@H](C)C(=O)N1)C(=O)N[C@@H](CC(=O)O)C(=O)N[C@H](C(=O)O)C(C)C [Peptide 8] (H-FCGDGFYACYMDV-OH; disulfide 2-9; N-terminus assumed) | > 1000 | much higher solubility |  | 0.000701 | 922 |  |
| CSCC[C@H](NC(=O)[C@H](Cc1ccc(O)cc1)NC(=O)[C@H](CS)NC(=O)[C@H](C)NC(=O)[C@H](Cc1ccc(O)cc1)NC(=O)[C@H](Cc1ccccc1)NC(=O)CNC(=O)[C@H](CC(=O)O)NC(=O)[C@H](CS)NC(=O)[C@@H](N)Cc1ccccc1)C(=O)N[C@@H](CC(=O)O)C(=O)N[C@H](C(=O)O)C(C)C [Peptide 9] | > 1000 | much higher solubility |  |  |  | Kd (HER2 receptor): 3560 nM; koff (HER2 receptor; read-out: binding to HER2 koff): 0.00106 s⁻¹; kon (HER2 receptor): 298 M⁻¹ s⁻¹; % inhibition of T6-17 cell proliferation in MTT assays (T6-17 cells): 12.8% |
| FCGDGFYACYMDV-NH2 (disulfide 2-9 (inferred)) [SEQ ID NO: 143] |  |  |  |  |  | growth inhibition in combination with tamoxifen (in words) [2]: enhanced in vitro inhibition of proliferation; growth inhibition in combination with tamoxifen (in words) [3]: enhanced in vitro inhibition of proliferation |
